Key:
ducksalad = experiment: Test B flooded paddy test; type: in vivo, Heteranthera limosa; conditions: 500 g ai/ha, Flood; scale of 0 to 100 where 0 is no effect and 100 is complete control
In short: (§1)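 In-water application to pots flooded 3 cm deep, plants at 2-leaf stage. Held in greenhouse 13–15 days at constant flood depth. Scored 0–100 by eye against controls.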

ryegrass, Italian = experiment: Test C pre-/postemergence herbicide test; type: in vivo, Lolium multiflorum
In short: (§2)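 Plants grown and held in a greenhouse for 13 to 15 days post-spray, then rated 0–100 by visual comparison with controls. Pre treatments targeted seeds in loam and sand; post treatments targeted 1- to 4-leaf plants in peat-based potting medium.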

sedge, umbrella = experiment: Test B flooded paddy test; type: in vivo, Cyperus difformis; conditions: 500 g ai/ha, Flood; scale of 0 to 100 where 0 is no effect and 100 is complete control
In short: as §1

morningglory = experiment: Test C pre-/postemergence herbicide test; type: in vivo, Ipomoea coccinea
In short: as §2

corn = experiment: Test C pre-/postemergence herbicide test; type: in vivo, Zea mays
In short: as §2

lambsquarters = experiment: Test C pre-/postemergence herbicide test; type: in vivo, Chenopodium album
In short: as §2

ragweed = experiment: Test C pre-/postemergence herbicide test; type: in vivo, Ambrosia elatior
In short: as §2

waterhemp = experiment: Test C pre-/postemergence herbicide test; type: in vivo, Amaranthus rudis
In short: as §2

galium = experiment: Test C pre-/postemergence herbicide test; type: in vivo, Galium aparine; conditions: Preemergence
In short: as §2

soybean = experiment: Test C pre-/postemergence herbicide test; type: in vivo, Glycine max
In short: as §2

barnyardgrass [1] = experiment: Test C pre-/postemergence herbicide test; type: in vivo, Echinochloa crus-galli
In short: as §2

wheat (winter wheat) = experiment: Test C pre-/postemergence herbicide test; type: in vivo, Triticum aestivum
In short: as §2

pigweed = experiment: Test C pre-/postemergence herbicide test; type: in vivo, Amaranthus retroflexus
In short: as §2

barnyardgrass [2] = experiment: Test B flooded paddy test; type: in vivo, Echinochloa crus-galli; conditions: 500 g ai/ha, Flood; scale of 0 to 100 where 0 is no effect and 100 is complete control
In short: as §1

oat, wild = experiment: Test C pre-/postemergence herbicide test; type: in vivo, Avena fatua; conditions: Postemergence
In short: as §2

[3] = Postemergence, 31 g ai/ha, scale 0 to 100 (0 no effect, 100 complete control)
[4] = Postemergence, 62 g ai/ha, scale 0 (no effect) to 100 (complete control)
[5] = Postemergence, 125 g ai/ha, scale 0 to 100 (0 no effect, 100 complete control)
[6] = Postemergence, 250 g ai/ha, scale 0 to 100 (0 no effect, 100 complete control)
[7] = Preemergence, 62 g ai/ha, scale 0 to 100 (0 no effect, 100 complete control)
[8] = Preemergence, 125 g ai/ha, scale 0 to 100
[9] = Preemergence, 31 g ai/ha, scale 0 to 100, 0 is no effect and 100 is complete control

Cc1cccc(NC(=O)C2C(=O)NCC2c2cccc(C(F)(F)F)c2)c1 (centres unmarked) [Compound 317]
Plant response rating, Ducksalad (ducksalad): 80 | Plant response rating, Ryegrass, Italian (ryegrass, Italian; [3]): 0 | Plant response rating, Ryegrass, Italian (ryegrass, Italian; [4]): 0 | Plant response rating, Ryegrass, Italian (ryegrass, Italian; [5]): 0 | Plant response rating, Ryegrass, Italian (ryegrass, Italian; [6]): 0 | Ryegrass, Italian plant response rating (ryegrass, Italian; [7]): 0 | Plant response rating, Ryegrass, Italian (ryegrass, Italian; [8]): 0 | Plant response rating, Sedge, Umbrella (sedge, umbrella): 0 | Plant response rating, Morningglory (morningglory; [3]): 0 | Plant response rating, Morningglory (morningglory; [4]): 0 | Plant response rating, Morningglory (morningglory; [5]): 0 | Plant response rating, Morningglory (morningglory; [6]): 10 | Morningglory plant response rating (morningglory; [9]): 25 | Morningglory plant response rating (morningglory; [7]): 0 | Plant response rating, Morningglory (morningglory; [8]): 0 | Plant response rating (scale of 0 to 100), Morningglory (morningglory; Preemergence, 250 g ai/ha): 0 | Plant response rating, Corn (corn; [3]): 0 | Plant response rating, Corn (corn; [4]): 0 | Plant response rating, Corn (corn; [5]): 0 | Plant response rating, Corn (corn; [6]): 0 | Corn plant response rating (corn; [9]): 0 | Corn plant response rating (corn; [7]): 0 | Plant response rating, Corn (corn; [8]): 25 | Plant response rating (scale of 0 to 100), Corn (corn; Preemergence, 250 g ai/ha): 30 | Plant response rating, Lambsquarters (lambsquarters; [3]): 0 | Plant response rating, Lambsquarters (lambsquarters; [4]): 0 | Plant response rating, Lambsquarters (lambsquarters; [5]): 25 | Plant response rating, Lambsquarters (lambsquarters; [6]): 25 | Lambsquarters plant response rating (lambsquarters; [9]): 0 | Lambsquarters plant response rating (lambsquarters; [7]): 0 | Plant response rating, Lambsquarters (lambsquarters; [8]): 0 | Plant response rating (scale of 0 to 100), Lambsquarters (lambsquarters; Preemergence, 250 g ai/ha): 10 | Plant response rating, Ragweed (ragweed; [3]): 0 | Plant response rating, Ragweed (ragweed; [4]): 0 | Plant response rating, Ragweed (ragweed; [5]): 25 | Plant response rating, Ragweed (ragweed; [6]): 40 | Ragweed plant response rating (ragweed; [7]): 0 | Plant response rating, Ragweed (ragweed; [8]): 0 | Plant response rating, Waterhemp (waterhemp; [3]): 0 | Plant response rating, Waterhemp (waterhemp; [4]): 0 | Plant response rating, Waterhemp (waterhemp; [5]): 20 | Plant response rating, Waterhemp (waterhemp; [6]): 0 | Waterhemp plant response rating (waterhemp; [7]): 0 | Plant response rating, Waterhemp (waterhemp; [8]): 10 | Galium plant response rating (galium; 31 g ai/ha, scale 0 to 100, 0 is no effect and 100 is complete control): 0 | Galium plant response rating (galium; 62 g ai/ha, scale 0 to 100 (0 no effect, 100 complete control)): 0 | Plant response rating, Galium (galium; 125 g ai/ha, scale 0 to 100): 0 | Plant response rating (scale of 0 to 100), Galium (galium; 250 g ai/ha): 0 | Plant response rating, Soybean (soybean; [3]): 0 | Plant response rating, Soybean (soybean; [4]): 0 | Plant response rating, Soybean (soybean; [5]): 0 | Plant response rating, Soybean (soybean; [6]): 0 | Soybean plant response rating (soybean; [7]): 0 | Plant response rating, Soybean (soybean; [8]): 0 | Plant response rating, Barnyardgrass (barnyardgrass [1]; [3]): 0 | Plant response rating, Barnyardgrass (barnyardgrass [1]; [4]): 0 | Plant response rating, Barnyardgrass (barnyardgrass [1]; [5]): 25 | Plant response rating, Barnyardgrass (barnyardgrass [1]; [6]): 70 | Barnyardgrass plant response rating (barnyardgrass [1]; [9]): 90 | Barnyardgrass plant response rating (barnyardgrass [1]; [7]): 90 | Plant response rating, Barnyardgrass (barnyardgrass [1]; Preemergence, 125 g ai/ha, scale 0 to 100 (0 no effect, 100 complete control)): 95 | Plant response rating (scale of 0 to 100; 0 is no effect, 100 is complete control), Barnyardgrass (barnyardgrass [1]; Preemergence, 250 g ai/ha): 95 | Plant response rating, Wheat (wheat (winter wheat); [3]): 0 | Plant response rating, Wheat (wheat (winter wheat); [4]): 0 | Plant response rating, Wheat (wheat (winter wheat); [5]): 0 | Plant response rating, Wheat (wheat (winter wheat); [6]): 0 | Wheat plant response rating (wheat (winter wheat); [7]): 0 | Plant response rating, Wheat (wheat (winter wheat); [8]): 0 | Plant response rating, Pigweed (pigweed; [3]): 5 | Plant response rating, Pigweed (pigweed; [4]): 5 | Plant response rating, Pigweed (pigweed; [5]): 5 | Plant response rating, Pigweed (pigweed; [6]): 5 | Pigweed plant response rating (pigweed; [9]): 0 | Pigweed plant response rating (pigweed; [7]): 0 | Plant response rating, Pigweed (pigweed; [8]): 0 | Plant response rating, Barnyardgrass (barnyardgrass [2]): 75 | Plant response rating, Oat, Wild (oat, wild; 31 g ai/ha, scale 0 to 100 (0 no effect, 100 complete control)): 0 | Plant response rating, Oat, Wild (oat, wild; 62 g ai/ha, scale 0 (no effect) to 100 (complete control)): 0 | Plant response rating, Oat, Wild (oat, wild; 125 g ai/ha, scale 0 to 100 (0 no effect, 100 complete control)): 0 | Plant response rating, Oat, Wild (oat, wild; 250 g ai/ha, scale 0 to 100 (0 no effect, 100 complete control)): 0

From patent US10294202B2, “Pyrrolidinones as herbicides” (FMC Corporation, priority 2013, dated 2019)
